Laboratory results: patent publication US4138554A, “7-[D-α-(4-Hydroxy-1,5-naphthyridine-3-carboxamido)-α-phenyl (and p-hydroxyphenyl)acetamido]-3-carbamoyloxymethyl-3-cephem-4-carboxylic acids” (priority 1977, dated 1979)
Converted amounts (≈) assume the structure as drawn. Where two headings read alike, the source gives them in different places.

System: Pseudomonas aeruginosa
Test: MIC by agar dilution against 61 strains of Pseudomonas aeruginosa, secondary evaluation
Format: cell-based
Details: for MIC: Pseudomonas aeruginosa
Experimental: Minimum inhibitory concentrations (MIC) of BB-S520 were determined by serial two-fold agar dilution method using Steers' apparatus on Meuller-Hinton agar plate against 31 test organisms for the primary screening and also against 61 strains of Pseudomonas aeruginosa for the secondary evaluation. The results are shown in Table 1 and Table 2 along with those of BB-S514 and sulbenicillin.
Minimum inhibitory concentrations (MIC) of cephalosporins in the present study were determined by serial two-fold agar dilution method using Steers' apparatus on Mueller-Hinton agar plate against 31 test organisms for the primary screening and also against 61 strains of Pseudomonas aeruginosa for the secondary evaluation.

MIC (61 strains of Pseudomonas aeruginosa, Table 7, read-out: Geometric Mean of MIC): 4.3 µg/mL (≈ 8.31 µM)
MIC (BBRI Pa-No. 1, D15, Table 7, read-out: MIC): 12.5 µg/mL (≈ 24.2 µM)
MIC (BBRI Pa-No. 2, VA, Table 7, read-out: MIC): 3.1 µg/mL (≈ 5.99 µM)
MIC (BBRI Pa-No. 3, 1449VA, Table 7, read-out: MIC): 1.6 µg/mL (≈ 3.09 µM)
MIC (BBRI Pa-No. 4, H9 D113, Table 7, read-out: MIC): 3.1 µg/mL (≈ 5.99 µM)
MIC (BBRI Pa-No. 5, N4865KC, Table 7, read-out: MIC): 1.6 µg/mL (≈ 3.09 µM)
MIC (BBRI Pa-No. 6, No. 5, Table 7, read-out: MIC): 25 µg/mL (≈ 48.3 µM)
MIC (BBRI Pa-No. 7, Table 7, read-out: MIC): 3.1 µg/mL (≈ 5.99 µM)
MIC (BBRI Pa-No. 8, Table 7, read-out: MIC): 3.1 µg/mL (≈ 5.99 µM)
MIC (BBRI Pa-No. 9, Yale, Table 7, read-out: MIC): 3.1 µg/mL (≈ 5.99 µM)
MIC (BBRI Pa-No. 10, Table 7, read-out: MIC): > 100 µg/mL
MIC (BBRI Pa-No. 11, Table 7, read-out: MIC): 3.1 µg/mL (≈ 5.99 µM)
MIC (BBRI Pa-No. 12, Table 7, read-out: MIC): 6.3 µg/mL (≈ 12.2 µM)
MIC (BBRI Pa-No. 14, Table 7, read-out: MIC): 1.6 µg/mL (≈ 3.09 µM)
MIC (BBRI Pa-No. 15, Table 7, read-out: MIC): 6.3 µg/mL (≈ 12.2 µM)
MIC (BBRI Pa-No. 16, No. 130, Table 7, read-out: MIC): 0.8 µg/mL (≈ 1.55 µM)
MIC (BBRI Pa-No. 17, H6 D114, Table 7, read-out: MIC): 25 µg/mL (≈ 48.3 µM)
MIC (BBRI Pa-No. 18, H8 D121, Table 7, read-out: MIC): 50 µg/mL (≈ 96.6 µM)
MIC (BBRI Pa-No. 19, Table 7, read-out: MIC): 0.8 µg/mL (≈ 1.55 µM)
MIC (BBRI Pa-No. 20, Table 7, read-out: MIC): 6.3 µg/mL (≈ 12.2 µM)
MIC (BBRI Pa-No. 21, Table 7, read-out: MIC): 3.1 µg/mL (≈ 5.99 µM)
MIC (BBRI Pa-No. 23, Table 7, read-out: MIC): 3.1 µg/mL (≈ 5.99 µM)
MIC (BBRI Pa-No. 24, Table 7, read-out: MIC): > 100 µg/mL
MIC (BBRI Pa-No. 25, Table 7, read-out: MIC): 1.6 µg/mL (≈ 3.09 µM)
MIC (BBRI Pa-No. 26, Ps32, Table 7, read-out: MIC): 1.6 µg/mL (≈ 3.09 µM)
MIC (BBRI Pa-No. 28, CPH1C527/72, Table 7, read-out: MIC): 6.3 µg/mL (≈ 12.2 µM)
MIC (BBRI Pa-No. 29, D122, Table 7, read-out: MIC): 3.1 µg/mL (≈ 5.99 µM)
MIC (BBRI Pa-No. 30, Table 7, read-out: MIC): 6.3 µg/mL (≈ 12.2 µM)
MIC (BBRI Pa-No. 31, Table 7, read-out: MIC): 1.6 µg/mL (≈ 3.09 µM)
MIC (BBRI Pa-No. 32, Table 7, read-out: MIC): 3.1 µg/mL (≈ 5.99 µM)
MIC (BBRI Pa-No. 33, Table 7, read-out: MIC): 6.3 µg/mL (≈ 12.2 µM)
MIC (BBRI Pa-No. 34, Table 7, read-out: MIC): 3.1 µg/mL (≈ 5.99 µM)
MIC (BBRI Pa-No. 35, Table 7, read-out: MIC): 6.3 µg/mL (≈ 12.2 µM)
MIC (BBRI Pa-No. 36, Table 7, read-out: MIC): 0.4 µg/mL (≈ 0.773 µM)
MIC (BBRI Pa-No. 37, Table 7, read-out: MIC): 3.1 µg/mL (≈ 5.99 µM)
MIC (BBRI Pa-No. 38, Table 7, read-out: MIC): 6.3 µg/mL (≈ 12.2 µM)
MIC (BBRI Pa-No. 39, Table 7, read-out: MIC): 1.6 µg/mL (≈ 3.09 µM)
MIC (BBRI Pa-No. 41, Table 7, read-out: MIC): 3.1 µg/mL (≈ 5.99 µM)
MIC (BBRI Pa-No. 42, Table 7, read-out: MIC): 25 µg/mL (≈ 48.3 µM)
MIC (BBRI Pa-No. 43, Table 7, read-out: MIC): 6.3 µg/mL (≈ 12.2 µM)
MIC (BBRI Pa-No. 44 (unnamed strain), Table 7, read-out: MIC): 3.1 µg/mL (≈ 5.99 µM)
MIC (BBRI Pa-No. 51, Table 7, read-out: MIC): 3.1 µg/mL (≈ 5.99 µM)
MIC (BBRI Pa-No. 52, Table 7, read-out: MIC): 3.1 µg/mL (≈ 5.99 µM)
MIC (BBRI Pa-No. 53, Table 7, read-out: MIC): 3.1 µg/mL (≈ 5.99 µM)
MIC (BBRI Pa-No. 54, Table 7, read-out: MIC): 3.1 µg/mL (≈ 5.99 µM)
MIC (BBRI Pa-No. 55, Table 7, read-out: MIC): 3.1 µg/mL (≈ 5.99 µM)
MIC (BBRI Pa-No. 56, Table 7, read-out: MIC): 3.1 µg/mL (≈ 5.99 µM)
MIC (BBRI Pa-No. 57, Table 7, read-out: MIC): 6.3 µg/mL (≈ 12.2 µM)
MIC (BBRI Pa-No. 58, Table 7, read-out: MIC): 6.3 µg/mL (≈ 12.2 µM)
MIC (BBRI Pa-No. 59, Table 7, read-out: MIC): 1.6 µg/mL (≈ 3.09 µM)
MIC (BBRI Pa-No. 60, Table 7, read-out: MIC): 3.1 µg/mL (≈ 5.99 µM)
MIC (BBRI Pa-No. 61, Table 7, read-out: MIC): 3.1 µg/mL (≈ 5.99 µM)
MIC (BBRI Pa-No. 62, Table 7, read-out: MIC): 12.5 µg/mL (≈ 24.2 µM)
MIC (BBRI Pa-No. 64, Table 7, read-out: MIC): 3.1 µg/mL (≈ 5.99 µM)
MIC (BBRI Pa-No. 65, Table 7, read-out: MIC): 1.6 µg/mL (≈ 3.09 µM)
MIC (BBRI Pa-No. 66, Table 7, read-out: MIC): 3.1 µg/mL (≈ 5.99 µM)
MIC (BBRI Pa-No. 67, Table 7, read-out: MIC): 6.3 µg/mL (≈ 12.2 µM)
MIC (BBRI Pa-No. 68, Table 7, read-out: MIC): 6.3 µg/mL (≈ 12.2 µM)
MIC (BBRI Pa-No. 69, Table 7, read-out: MIC): 6.3 µg/mL (≈ 12.2 µM)
MIC (BBRI Pa-No. 70, K-Ps102(CR-102), Table 7, read-out: MIC): 3.1 µg/mL (≈ 5.99 µM)
MIC (GN315, BBRI Pa-No. 27, GN315, Table 7, read-out: MIC): 3.1 µg/mL (≈ 5.99 µM)
MIC (GN4925, BBRI Pa-No. 44, GN4925, Table 7, read-out: MIC): 6.3 µg/mL (≈ 12.2 µM)
SMILES: CCN1CCN(C(=O)NC(C(=O)N[C@@H]2C(=O)N3[C@@H]2SC(C)(C)[C@@H]3C(=O)O)c2ccccc2)C(=O)C1=O (stereo partly drawn) [T-1220]
Rel. Act. (SBPC=100%) (61 strains of Pseudomonas aeruginosa, Table 7): 544%
